Laboratory results from PubChem BioAssay (NCI).
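The concentration for 50% growth inhibition is given as GI50. At the TGI there is no net growth.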

Key:
Assay in all cases: NCI-60 cell line screen, 384-well format
[1] = system: SK-MEL-28 melanoma
[2] = system: OVCAR-5 ovarian
[3] = system: LOX IMVI melanoma
[4] = system: UACC-257 melanoma
[5] = system: MDA-MB-435 melanoma
[6] = system: MDA-MB-231 breast
[7] = system: TK-10 renal
[8] = system: K-562 leukemia
[9] = system: ACHN renal
[10] = system: RXF 393 renal
[11] = system: 786-0 renal
[12] = system: M14 melanoma
[13] = system: RPMI-8226 leukemia
[14] = system: SK-MEL-5 melanoma
[15] = system: HL-60(TB) leukemia
[16] = system: CCRF-CEM leukemia
[17] = system: MOLT-4 leukemia
[18] = system: HOP-92 NSCLC
[19] = system: OVCAR-4 ovarian
[20] = system: IGROV1 ovarian
[21] = system: PC-3 prostate
[22] = system: NCI-H226 lung
[23] = system: UO-31 renal
[24] = system: SK-OV-3 ovarian
[25] = system: OVCAR-8 ovarian
[26] = system: A498 renal
[27] = system: NCI/ADR-RES ovarian
[28] = system: HT29 colon
[29] = system: DU-145 prostate
[30] = system: OVCAR-3 ovarian
[31] = system: NCI-H322M lung
[32] = system: SNB-19 CNS
[33] = system: SNB-75 CNS
[34] = system: BT-549 breast
[35] = system: SF-295 CNS
[36] = system: U251 glioblastoma
[37] = system: SF-539 CNS
[38] = system: A549 NSCLC
[39] = system: EKVX NSCLC
[40] = system: SW-620 colon
[41] = system: KM12 colon
[42] = system: NCI-H23 lung
[43] = system: HCC-2998 colon
[44] = system: NCI-H460 NSCLC
[45] = system: HOP-62 NSCLC
[46] = system: HS 578T breast
[47] = system: HCT-15 colon
[48] = system: SF-268 CNS
[49] = system: T-47D breast
[50] = system: MDA-MB-468 breast
[51] = system: SR leukemia
[52] = system: CAKI-1 renal
[53] = system: HCT-116 colon
[54] = system: NCI-H522 lung
[55] = system: SN12C renal
[56] = system: MALME-3M melanoma

Nc1cc(C(F)(F)F)c(-c2cc(N3CCOCC3)nc(N3CCOCC3)n2)cn1
GI50 [1]: 485 nM | TGI [1]: 3340 nM | GI50 [2]: 687 nM | TGI [2]: > 100000 nM | GI50 [3]: 1180 nM | TGI [3]: 10700 nM | GI50 [4]: 930 nM | TGI [4]: 7270 nM | GI50 [5]: 223 nM | TGI [5]: 449 nM | GI50 [6]: 819 nM | TGI [6]: 44900 nM | GI50 [7]: 572 nM | TGI [7]: 2730 nM | GI50 [8]: 459 nM | TGI [8]: 1830 nM | GI50 [9]: 246 nM | TGI [9]: 10000 nM | GI50 [10]: 285 nM | TGI [10]: 1300 nM | GI50 [11]: 1970 nM | TGI [11]: 7000 nM | GI50 [12]: 416 nM | TGI [12]: 8850 nM | GI50 [13]: 185 nM | TGI [13]: 385 nM | GI50 [14]: 235 nM | TGI [14]: 762 nM | GI50 [15]: 280 nM | TGI [15]: 1300 nM | GI50 [16]: 589 nM | TGI [16]: 1880 nM | GI50 [17]: 333 nM | TGI [17]: 1330 nM | GI50 [18]: 562 nM | TGI [18]: 4000 nM | GI50 [19]: 1260 nM | TGI [19]: 6660 nM | GI50 [20]: 209 nM | TGI [20]: 572 nM | GI50 [21]: 462 nM | TGI [21]: 6930 nM | GI50 [22]: 574 nM | TGI [22]: 4130 nM | GI50 [23]: 340 nM | TGI [23]: 3070 nM | GI50 [24]: 560 nM | TGI [24]: 2550 nM | GI50 [25]: 460 nM | TGI [25]: 14000 nM | GI50 [26]: 387 nM | TGI [26]: 1870 nM | GI50 [27]: 265 nM | TGI [27]: 1670 nM | GI50 [28]: 715 nM | TGI [28]: > 100000 nM | GI50 [29]: 1990 nM | TGI [29]: 13900 nM | GI50 [30]: 546 nM | TGI [30]: 2460 nM | GI50 [31]: 1620 nM | TGI [31]: 7010 nM | GI50 [32]: 2030 nM | TGI [32]: 7760 nM | GI50 [33]: 287 nM | TGI [33]: 1190 nM | GI50 [34]: 691 nM | TGI [34]: 4610 nM | GI50 [35]: 361 nM | TGI [35]: 1540 nM | GI50 [36]: 1770 nM | TGI [36]: 4370 nM | GI50 [37]: 1210 nM | TGI [37]: 2910 nM | GI50 [38]: 360 nM | TGI [38]: 12400 nM | GI50 [39]: 793 nM | TGI [39]: 6280 nM | GI50 [40]: 358 nM | TGI [40]: > 100000 nM | GI50 [41]: 894 nM | TGI [41]: 20200 nM | GI50 [42]: 310 nM | TGI [42]: 2260 nM | GI50 [43]: 1080 nM | TGI [43]: 3370 nM | GI50 [44]: 419 nM | TGI [44]: 1670 nM | GI50 [45]: 264 nM | TGI [45]: 2730 nM | GI50 [46]: 443 nM | TGI [46]: 1750 nM | GI50 [47]: 394 nM | TGI [47]: 4110 nM | GI50 [48]: 384 nM | TGI [48]: 4570 nM | GI50 [49]: 231 nM | TGI [49]: 776 nM | GI50 [50]: 230 nM | TGI [50]: 618 nM | GI50 [51]: 45.9 nM | TGI [51]: 160 nM | GI50 [52]: 230 nM | TGI [52]: 804 nM | GI50 [53]: 852 nM | TGI [53]: 7530 nM | GI50 [54]: 341 nM | TGI [54]: 1300 nM | GI50 [55]: 1220 nM | TGI [55]: 7120 nM | GI50 [56]: 272 nM | TGI [56]: 838 nM
